Experimental data reported in patent US12018265B2, “Nucleic acid encoding n-methylputrescine oxidase and uses thereof” (22nd Century Limited, LLC, priority 2006, dated 2024).
One block for each compound: values may come before it.

Legend:
[1] = system: MPO; conditions: compared with N-methylated diamines; Hashimoto 1990, Walton and McLauchlan 1990, Boswell 1999; cited from earlier work
[2] = system: MPO and PMT expression in roots; experiment: qRT-PCR analysis of MPO and PMT expression in MeJa-treated roots; type: in vivo, Nicotiana benthamiana; conditions: MeJa 11 μM in hydroponic solution
Protocol: Nicotiana benthamiana (Solanaceae) seedlings were grown hydroponically in 0.25× Hoagland's solution supplemented with iron chelate solution and oxygenated using an aquarium bubbler. Roots from three-week old plants were sampled before (t=0) and at 1, 4, and 7 hours after addition of MeJa to a final concentration of 11 μM. Total RNA was isolated from 450 mg each of untreated leaves, untreated roots, and a combined MeJa-treated root sample composed of 150 mg roots each from the 1, 4 and 7 hour time points using a RNeasy midi kit (Qiagen). We constructed three separate subtractive cDNA libraries: NBREL2, with mRNA pooled from MeJa-treated roots as tester and untreated root mRNA as driver; NBLEL3, with mRNA pooled from MeJa-treated roots as tester and leaf mRNA as driver; and NBREL4, with mRNA pooled from MeJa-treated roots as both tester and driver.
The inducibility of MPO by MeJa application was determined using quantitative RT-PCR (qRT-PCR). The same PCR primers were used as for RT-PCR analysis of expression in different tissues. Total RNA was extracted from hydroponically grown roots immediately before and 1, 4, and 7 hours after addition of MeJa (11 μM) to the hydroponic solution. Hydroponic conditions are detailed in Example 1. […]

[3] = system: recombinant MPO (N-methylputrescine oxidase); experiment: Recombinant MPO enzyme assay (Amplex red hydrogen peroxide/peroxidase system); type: biochemical, Nicotiana benthamiana
Protocol: Protein extracts was prepared from the roots of buffer control, TRV-GFP and TRV-MPO (214D11) infected plants. The extraction method described in Hashimoto T. et al. (Plant Physiol. 93: 216-221 (1990)) was used. Briefly, 1 g roots was ground in liquid nitrogen and suspended in 20 ml of extraction buffer containing 100 mM potassium phosphate pH 7.5, 0.25 M sucrose, 5 mM EDTA, 0.3% ascorbate and 10% PVPP. After centrifugation at 500 g for 30 min, the supernatant was further centrifuged at 11,000 g for another 30 minutes. The supernatant was subjected to two rounds of 20% and 40% ammonium sulphate precipitation. The precipitate was resuspended in 1 ml water, followed by dialysis overnight in 2 l of buffer containing 20 mM potassium phosphate pH 7.5, 1 mM DTT and 20% glycerol. The protein concentration was determined by DC protein assay kit (BioRad). […] After incubating the mixture at 30° C. for 30 min, the fluorescence was measured with a fluorescence microplate reader (Victor3 UV multilabel reader, PerkinElmer) using excitation at 530-560 nm and emission at 590 nm.
The ORF of the N. benthamiana MPO was expressed in E. coli and the recombinant enzyme was purified for biochemical characterization. […] The protein concentration was determined with DC protein assay kit (BioRad) and MPO purity was analyzed with SDS-PAGE electrophoresis (BioRad). […]

SMILES: NCCCCCN [Cadaverine]
Affinity as substrate for MPO [1]: lower affinity than N-methylated diamines

SMILES: CC/C=C\CC1C(=O)CCC1CC(=O)OC (centres unmarked) [MeJa, methyljasmonate]
Increase of MPO expression over pre-induction levels ([2]; roots before and 1, 4, 7 hours after, actin reference (FIG. 3)): 23 fold
Change of PMT transcript levels in response to the inducer ([2]; roots, compared with MPO (FIG. 3)): even more dramatic increase

Km ([3]; 1 μg Talon purified MPO, N-methylputrescine 10 mM to 0.01 mM, 30°, 30 minutes): 100 µM
SMILES: CNCCCCN [N-methylputrescine]
Substrate specificity of recombinant MPO ([3]; 1 mM of N-methylputrescine, putrescine, diaminopropane, cadaverine, spermine and spermidine (FIG. 9)): preferred N-methylputrescine as a substrate
